Experimental data from patent publication US20140128352A1, “COMPOUNDS AND METHODS FOR MODULATING MITOCHONDRIAL METABOLISM AND REACTIVE OXYGEN SPECIES PRODUCTION” (Buck Institute for Research on Aging, priority 2012, published 2014).
Entries after “also recorded” stand apart in the source; their conditions may differ. Like-named read-outs stand apart in the source and are kept apart here.

Tests used:
[1] = test system: ubiquinone binding site of complex I (IQ); experiment: High-throughput screen: ROS production from ubiquinone binding site of complex I (IQ), isolated skeletal muscle mitochondria; format: biochemical, rat; details: percent change in ROS from DMSO controls
[2] = biological target: T1, flavin binding site of complex I (IF) (Rattus norvegicus, UniProt Q5XIH3); experiment: High-throughput screen: ROS production from flavin binding site of complex I (IF); format: biochemical
T1 construct: freshly isolated muscle mitochondria were assayed; from tissue; host or cells: rat skeletal muscle mitochondria (Wistar, Harlan Laboratories)

[3] = biological target: T2, outer ubiquinone binding site of complex III (IIIQO) (Rattus norvegicus, UniProt P00159+P20788); experiment: High-throughput screen: ROS production from outer ubiquinone binding site of complex III (IIIQO); format: biochemical; details: for IIIQO: Table 8
T2 construct: freshly isolated muscle mitochondria were assayed; from tissue; host or cells: rat skeletal muscle mitochondria (Wistar, Harlan Laboratories)

[4] = biological target: T3, succinate dehydrogenase/complex II (SDH) (Rattus norvegicus, UniProt P21913+Q641Z9+Q6PCT8+Q920L2); experiment: High-throughput screen: ROS production from succinate dehydrogenase/complex II (SDH); format: biochemical; details: percent change in ROS from DMSO controls; for inhibition at 2.5 µM: Table 7
T3 construct: freshly isolated muscle mitochondria were assayed; from tissue; host or cells: rat skeletal muscle mitochondria (Wistar, Harlan Laboratories)

[5] = biological target: T4, glycerol-3-phosphate dehydrogenase (GPDH) (Rattus norvegicus, UniProt P35571); experiment: High-throughput screen: ROS production from glycerol-3-phosphate dehydrogenase (GPDH); format: biochemical; parameters: inhibition: dose or concentration left out as unconfirmed
T4 construct: The activity of GPDH in intact mitochondria (0.3 mg/mL) was measured; from tissue; host or cells: rat skeletal muscle mitochondria (Wistar, Harlan Laboratories)
T4 sequence (P35571 43-727): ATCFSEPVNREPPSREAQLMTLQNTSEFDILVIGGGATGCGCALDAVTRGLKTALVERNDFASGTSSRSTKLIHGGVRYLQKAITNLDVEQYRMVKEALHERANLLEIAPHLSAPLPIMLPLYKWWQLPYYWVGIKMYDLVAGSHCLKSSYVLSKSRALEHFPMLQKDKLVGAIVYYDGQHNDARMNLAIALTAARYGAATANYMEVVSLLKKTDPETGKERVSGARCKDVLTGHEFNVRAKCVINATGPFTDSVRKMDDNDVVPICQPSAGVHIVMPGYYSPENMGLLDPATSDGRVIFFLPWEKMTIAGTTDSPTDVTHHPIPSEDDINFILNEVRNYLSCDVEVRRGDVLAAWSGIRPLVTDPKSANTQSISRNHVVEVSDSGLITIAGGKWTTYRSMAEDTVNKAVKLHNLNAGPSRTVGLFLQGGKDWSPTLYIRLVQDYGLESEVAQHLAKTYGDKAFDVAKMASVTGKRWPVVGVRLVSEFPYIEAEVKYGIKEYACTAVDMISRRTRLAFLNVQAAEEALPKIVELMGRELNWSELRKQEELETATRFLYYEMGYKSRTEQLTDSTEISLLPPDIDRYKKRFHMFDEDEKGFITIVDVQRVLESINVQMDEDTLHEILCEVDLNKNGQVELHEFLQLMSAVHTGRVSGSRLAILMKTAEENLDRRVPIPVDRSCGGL

site IF = biological target: T5, site IF (Rattus norvegicus, UniProt Q5XIH3); experiment: Retest of IF ROS production (expanded microplate panel); format: biochemical
T5 construct: freshly isolated muscle mitochondria were assayed; from tissue; host or cells: rat skeletal muscle mitochondria (Wistar, Harlan Laboratories)
Experimental: Compounds identified as site-selective hits as well as structural analogs were re-sourced from ChemBridge and dissolved in DMSO as 80 mM stocks. Master Titration Plates were prepared manually by serially diluting 80 mM compound stocks between 0.08 and 80 mM on 96-well microplates. Four compounds were titrated in duplicate on each plate. Additional DMSO controls were interspersed across these plates to serve as local normalization controls during analysis since two-way median polishing was not appropriate. Just prior to use, compounds were diluted 100-fold with standard buffer (10X). The same known inhibitor positive controls were included on each plate as during high-throughput screening. The five core ROS assays and single ΔΨm assay were carried out as in the initial high-throughput screen. In addition, several assays were included to help validate the specificity of the compounds for a given site of production. […] The use of different substrates was designed to reveal compounds that disrupt mitochondrial function in a substrate specific manner. […] Most frequently, these changes involved the use of different substrates to supply electrons from an alternative entry point in the chain. If a site of ROS production is being targeted selectively by a compound, then in many cases the supply of electrons should not influence the effectiveness of this compound at suppressing ROS production. […] The fluorescence values in each well were scaled in relation to the intra-plate DMSO and known inhibitor controls as in the high-throughput screen except that median values for local interspersed DMSO wells (3-6 wells) were used rather than just the 8 DMSO wells in columns 1 and 12. This normalization was applied in place of the two-way median polish used during high-throughput screening to minimize row and column effects. […] At this stage, strong candidates were not necessarily excluded from further testing if subtle off-target effects were observed (e.g. loss of specificity or signs of general inhibition at the highest concentrations). Rather, these candidates were often pursued for more detailed mechanistic studies with the expectation that subsequent structure activity analysis would provide insight into which structurally related compounds would provide the optimal specificity for a given site of production.

[6] = test system: mitochondrial membrane potential (ΔΨm); experiment: Membrane potential (ΔΨm) counterscreen with TMRM; details: malate, nigericin
GPDH = biological target: T6, GPDH (Rattus norvegicus, UniProt P35571); experiment: Retest of GPDH ROS production (expanded microplate panel / cuvette); format: biochemical; details: microplate or cuvette
T6 construct: from tissue; host or cells: rat skeletal muscle mitochondria (Wistar, Harlan Laboratories)
T6 sequence (P35571 43-727): T4 sequence (P35571 43-727)
Experimental: Compounds identified as site-selective hits as well as structural analogs were re-sourced from ChemBridge and dissolved in DMSO as 80 mM stocks. Master Titration Plates were prepared manually by serially diluting 80 mM compound stocks between 0.08 and 80 mM on 96-well microplates. Four compounds were titrated in duplicate on each plate. Additional DMSO controls were interspersed across these plates to serve as local normalization controls during analysis since two-way median polishing was not appropriate. Just prior to use, compounds were diluted 100-fold with standard buffer (10X). The same known inhibitor positive controls were included on each plate as during high-throughput screening.
The five core ROS assays and single ΔΨm assay were carried out as in the initial high-throughput screen. In addition, several assays were included to help validate the specificity of the compounds for a given site of production. All compounds were titrated against separate assays targeting IQ ROS and IIIQo ROS using subsaturating (0.5 mM final) succinate. […] Specifically, ΔΨm was monitored separately with 5 mM succinate (in the presence of 4 μM rotenone) in addition to glutamate and malate as before. The use of different substrates was designed to reveal compounds that disrupt mitochondrial function in a substrate specific manner.
Most frequently, these changes involved the use of different substrates to supply electrons from an alternative entry point in the chain. If a site of ROS production is being targeted selectively by a compound, then in many cases the supply of electrons should not influence the effectiveness of this compound at suppressing ROS production. […]
The fluorescence values in each well were scaled in relation to the intra-plate DMSO and known inhibitor controls as in the high-throughput screen except that median values for local interspersed DMSO wells (3-6 wells) were used rather than just the 8 DMSO wells in columns 1 and 12. […]

complex I = experiment: Rate of NAD(P)H reduction via complex I versus observed ROS production; format: biochemical, rat
Experimental: To compare candidate IQ ROS inhibitors with mitochondrial inhibitors known to disrupt complex I activity (e.g. rotenone) or oxidize the electron transport chain (e.g. the uncoupler FCCP), the rate of NAD(P)H reduction via complex I was measured when isolated mitochondria were provided with saturating concentrations of the complex II substrate succinate (5 mM) and subsaturating levels of glutamate (1 mM) to facilitate full activation of complex II by oxaloacetate removal. […] These conditions allow electron and proton fluxes through complex Ito reverse and be directed predominantly toward the matrix. Addition of succinate causes a rapid increase in the reduction state of the matrix NAD(P)H pool that can be monitored as described above. The rate of NAD(P)H reduction is therefore a measure of electron flux through complex I for which direct comparisons can be made under identical conditions to effects on rates of ROS production.

[7] = Table 3, 5 mM glutamate, 5 mM malate, 4 μM rotenone, compounds 2.5 μM, percent change from DMSO, positive control −100%, read-out: % Reduction in ROS production (IF)
[8] = Table 7, percent change in ROS from DMSO controls, read-out: IF
[9] = Table 8, percent change in ROS from DMSO controls
[10] = Table 9, percent change in ROS from DMSO controls
[11] = Table 7, percent change in ROS from DMSO controls, read-out: IIIQO
[12] = percent change in ROS from DMSO controls
[13] = Table 9, percent change in ROS from DMSO controls, read-out: IIIQo
[14] = Table 7, percent change in ROS from DMSO controls

T1 sequence (Q5XIH3 21-464 limits assumed, one chain of several): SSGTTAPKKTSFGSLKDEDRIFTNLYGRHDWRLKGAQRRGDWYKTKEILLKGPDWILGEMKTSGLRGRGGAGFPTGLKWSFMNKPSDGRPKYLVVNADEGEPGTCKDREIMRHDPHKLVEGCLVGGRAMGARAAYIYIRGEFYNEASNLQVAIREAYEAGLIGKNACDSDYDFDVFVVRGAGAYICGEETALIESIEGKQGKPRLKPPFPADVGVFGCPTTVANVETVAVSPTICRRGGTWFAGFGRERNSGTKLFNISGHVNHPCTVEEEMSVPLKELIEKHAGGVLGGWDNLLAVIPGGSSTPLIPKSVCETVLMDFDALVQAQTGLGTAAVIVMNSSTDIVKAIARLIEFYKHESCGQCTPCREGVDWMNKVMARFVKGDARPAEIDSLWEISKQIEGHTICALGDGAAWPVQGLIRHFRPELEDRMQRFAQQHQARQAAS
T3 sequence (Q920L2 35-656): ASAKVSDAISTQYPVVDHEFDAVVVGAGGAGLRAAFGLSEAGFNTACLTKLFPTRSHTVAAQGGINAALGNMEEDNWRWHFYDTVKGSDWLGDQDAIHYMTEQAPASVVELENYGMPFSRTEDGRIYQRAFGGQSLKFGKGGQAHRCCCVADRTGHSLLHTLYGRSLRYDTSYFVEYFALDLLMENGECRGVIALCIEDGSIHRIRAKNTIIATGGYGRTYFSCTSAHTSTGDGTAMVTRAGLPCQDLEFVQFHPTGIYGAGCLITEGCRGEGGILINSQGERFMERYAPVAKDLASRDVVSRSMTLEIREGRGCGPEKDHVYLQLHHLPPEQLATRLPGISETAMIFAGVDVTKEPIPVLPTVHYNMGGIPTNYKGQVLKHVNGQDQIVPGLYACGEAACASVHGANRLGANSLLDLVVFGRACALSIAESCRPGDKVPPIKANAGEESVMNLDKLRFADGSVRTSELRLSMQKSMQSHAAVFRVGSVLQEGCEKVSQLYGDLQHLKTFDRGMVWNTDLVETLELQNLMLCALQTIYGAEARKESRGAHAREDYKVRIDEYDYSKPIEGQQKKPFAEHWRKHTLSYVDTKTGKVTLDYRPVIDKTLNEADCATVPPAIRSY
T3 sequence (P21913 31-282): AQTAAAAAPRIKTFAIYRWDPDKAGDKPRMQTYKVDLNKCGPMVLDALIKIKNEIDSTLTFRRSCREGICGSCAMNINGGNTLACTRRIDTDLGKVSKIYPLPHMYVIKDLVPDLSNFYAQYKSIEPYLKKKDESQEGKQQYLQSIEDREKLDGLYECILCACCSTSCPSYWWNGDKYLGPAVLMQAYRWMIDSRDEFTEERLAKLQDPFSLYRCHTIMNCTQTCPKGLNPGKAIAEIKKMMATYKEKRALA
T3 sequence (Q641Z9 30-169 limits assumed): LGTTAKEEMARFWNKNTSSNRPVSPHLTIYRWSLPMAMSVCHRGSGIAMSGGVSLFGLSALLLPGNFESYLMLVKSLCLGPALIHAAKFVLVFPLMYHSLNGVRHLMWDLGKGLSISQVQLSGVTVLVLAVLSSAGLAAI
T3 sequence (Q6PCT8 57-159): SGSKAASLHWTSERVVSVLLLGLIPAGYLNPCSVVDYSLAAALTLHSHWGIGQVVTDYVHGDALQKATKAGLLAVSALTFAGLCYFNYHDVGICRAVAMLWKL
T5 sequence (Q5XIH3 21-464 limits assumed): as the sequence (Q5XIH3 21-464 limits assumed, one chain of several) above

Row | Compound | IQ ([1]; Table 7) | IQ ([1]; Table 8) | IQ ([1]; Table 9) | inhibition at 2.5 µM [2, 7] [%] | inhibition at 2.5 µM [2, 8] [%] | IF [2, 9] | IF [2, 10] | inhibition at 2.5 µM [3, 11] [%] | IIIQO [3, 12] | inhibition at 2.5 µM [3, 13] [%] | inhibition at 2.5 µM [4] [%] | SDH ([4]; Table 8) | SDH ([4]; Table 9) | inhibition [5, 14] [%] | GPDH [5, 9] | GPDH [5, 10] | ΔΨm ([6]; Table 8, glutamate) | ΔΨm ([6]; Table 9, glutamate) | effect on GPDH ROS on retesting (GPDH) | other results
1 | O=C(O)C1CCCCC1C(=O)NC1CCCCCCC1 (stereo not shown) [Compound 30] | −0.7 | −0.7 | −0.7 | 36.9 | 36.9 | −36.9 | −36.9 | -0.1 | 0.1 | -0.1 | -3.3 | 3.3 | 3.3 | -0.7 | 0.7 | 0.7 | −1.0 | −1.0 | – | inhibition at 2.5 µM (site IF; 2.5 μM): 37%
2 | CN(C)CCCN(CCCN(C)C)Cc1cccnc1 [Compound 33] | −0.5 | −0.5 | −0.5 | 3 | 3 | −3.0 | −3.0 | -6.1 | 6.1 | -6.1 | – | – | – | 12.7 | −12.7 | −12.7 | 0.4 | 0.4 | – | effect on IF ROS and selectivity for site IF (site IF): further improved selectivity for IF without compromising ΔΨm
3 | O=C(O)CCC(=O)Nc1ccc(-c2nc3ccccc3o2)cc1 [Compound 50] | 0.8 | 0.8 | 0.8 | – | 2.6 | −2.6 | −2.6 | -2.5 | 2.5 | -2.5 | -2.1 | 2.1 | 2.1 | 12.2 | −12.2 | −12.2 | 0.8 | 0.8 | retested well as selective inhibitors of GPDH ROS | inhibition at 2.5 µM ([5]; Table 6, 25 mM glycerol phosphate, rotenone, antimycin A, malonate, myxothiazol, compounds 2.5 μM, scaled to IQ positive controls, read-out: % Reduction in ROS Production (GPDH)): 12.2%
4 | COc1ccc(/C=C2\C(=O)NC(=S)N(c3ccccc3)C2=O)cc1Br [Compound 52] | −0.2 | – | – | – | 2.2 | – | – | – | – | – | -4.6 | – | – | – | – | – | – | – | did not show any effect on GPDH when retested | inhibition at 2.5 µM ([3]; read-out: IIIQO): 0.4%; inhibition at 2.5 µM ([5]; Table 7, percent change in ROS from DMSO controls, read-out: GPDH): 0%; inhibition at 2.5 µM ([5]; read-out: % Reduction in ROS Production (GPDH)): 14.6%
5 | N#CC(C#N)=NNc1ccc(OC(F)(F)F)cc1 [FCCP] | – | – | – | – | – | – | – | – | – | – | – | – | – | – | – | – | – | – | – | effect on rates of NADH reduction and ROS production (complex I): progressively inhibited both activities; also recorded: suppresses observed ROS to near zero
6 | C=C(C)[C@H]1Cc2c(ccc3c2O[C@@H]2COc4cc(OC)c(OC)cc4[C@@H]2C3=O)O1 [rotenone] | – | – | – | – | – | – | – | – | – | – | – | – | – | – | – | – | – | – | – | effect on rates of NADH reduction and ROS production (complex I; succinate with low glutamate, range of concentrations): progressively inhibited both activities; effect on rates of NADH reduction and ROS production (complex I; succinate with low glutamate, range of concentrations, listed as Rotenone): eliminates all IQ ROS production but not that from underlying IF and IIIQo
